Key:
human p38 kinase alpha [1] = biological target: T1, human p38 kinase alpha (Homo sapiens, UniProt Q16539); test: p38α in vitro kinase assay, PHAS-I procedure; assay type: biochemical
T1 construct: The coding region of the human p38a cDNA was obtained by PCR-amplification from RNA; made in house; host or cells: E. coli DH10B
Method: The ability of compounds to inhibit human p38 kinase alpha was evaluated using two in vitro assay methods. In the first method, activated human p38 kinase alpha phosphorylates a biotinylated substrate, PHAS-I (phosphorylated heat and acid stable protein-insulin inducible), in the presence of gamma ^32P-ATP (^32P-ATP). PHAS-I was biotinylated prior to the assay and provides a means of capturing the substrate which is phosphorylated during the assay. p38 Kinase was activated by MKK6. Compounds were tested in 10 fold serial dilutions over the range of 100 μM to 0.001 μM using 1% DMSO. Each concentration of inhibitor was tested in triplicate.
All reactions were carried out in 96 well polypropylene plates. Each reaction well contained 25 mM HEPES pH 7.5, 10 mM magnesium acetate and 50 μM unlabeled ATP. Activation of p38 was required to achieve sufficient signal in the assay. Biotinylated PHAS-I was used at 1-2 μg per 50 μl reaction volume, with a final concentration of 1.5 μM. Activated human p38 kinase alpha was used at 1 μg per 50 μl reaction volume representing a final concentration of 0.3 μM. […]
Following incubation, 20 μl of reaction mixture was transferred to a high capacity streptavidin coated filter plate (SAM-streptavidin-matrix, Promega) prewetted with phosphate buffered saline. […] The plates were sealed and counted.

human p38 kinase alpha [2] = biological target: T1, human p38 kinase alpha; test: p38α in vitro kinase assay, EGFRP procedure; assay type: biochemical
Method: A second assay format was also employed that is based on p38 kinase alpha induced phosphorylation of EGFRP (epidermal growth factor receptor peptide, a 21 mer) in the presence of ^33P-ATP. Compounds were tested in 10 fold serial dilutions over the range of 100 μM to 0.001 μM in 1% DMSO. Each concentration of inhibitor was tested in triplicate. Compounds were evaluated in 50 μl reaction volumes in the presence of 25 mM Hepes pH 7.5, 10 mM magnesium acetate, 4% glycerol, 0.4% bovine serum albumin, 0.4 mM DTT, 50 μM unlabeled ATP, 25 μg EGFRP (200 μM), and 0.05 uCi gamma ^33P-ATP. Reactions were initiated by addition of 0.09 μg of activated, purified human GST-p38 kinase alpha. Activation was carried out using GST-MKK6 (5:1,p38:MKK6) for one hour at 30° C. in the presence of 50 μM ATP. Following incubation for 60 minutes at room temperature, the reaction was stopped by addition of 150 μl of AG 1×8 resin in 900 mM sodium formate buffer, pH 3.0 (1 volume resin to 2 volumes buffer). The mixture was mixed three times with pipetting and the resin was allowed to settle. A total of 50 μl of clarified solution head volume was transferred from the reaction wells to Microlite-2 plates. 150 μl of Microscint 40 was then added to each well of the Microlite plate, and the plate was sealed, mixed, and counted.

[3] = tested on: TNF-α release by U937 cells; test: LPS stimulation of TNF production by U937 cells; assay type: cell-based; conditions: Homo sapiens, U-937; LPS-stimulated differentiated U937 cells, TNF-α by ELISA after 4 hour incubation; read-out: TNF Cell IC50
Method: U937 cells (ATCC) were propagated in RPMI 1640 containing 10% fetal bovine serum, 100 IU/ml penicillin, 100 μg/ml streptomycin, and 2 mM glutamine (Gibco). Fifty million cells in 100 ml media were induced to terminal monocytic differentiation by 24 hour incubation with 20 ng/ml phorbol 12-myristate 13-acetate (Sigma). The cells were washed by centrifugation (200×g for 5 min) and resuspended in 100 ml fresh medium. After 24-48 hours, the cells were harvested, centrifuged, and resuspended in culture medium at 2 million cells/ml.
U937 cells (0.1 ml, 2 million/ml) were incubated with 0.1 ml compound (0.004-50 μM, final concentration) for 1 hour in 96 well microtiter plates. Compounds were prepared as 10 mM stock solutions in DMSO and diluted in culture medium to yield a final DMSO concentration of 0.1% in the cell assay. LPS (E coli, 100 ng/ml final concentration) was then added at a volume of 0.02 ml. After 4 hour incubation at 37° C., the amount of TNF-α released in the culture medium was quantitated by ELISA. Inhibitory potency is expressed as IC50 (μM).

T1 sequence (Q16539 whole entry): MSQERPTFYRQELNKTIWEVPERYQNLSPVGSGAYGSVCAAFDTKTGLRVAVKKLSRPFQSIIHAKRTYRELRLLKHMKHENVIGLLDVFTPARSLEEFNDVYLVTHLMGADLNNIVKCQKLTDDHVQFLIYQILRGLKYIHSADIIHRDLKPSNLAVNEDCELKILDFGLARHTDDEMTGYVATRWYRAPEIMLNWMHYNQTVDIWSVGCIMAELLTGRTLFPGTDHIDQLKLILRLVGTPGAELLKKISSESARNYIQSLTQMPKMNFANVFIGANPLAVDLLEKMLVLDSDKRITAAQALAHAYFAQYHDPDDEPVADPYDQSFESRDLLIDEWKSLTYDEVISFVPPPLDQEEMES

Structure (SMILES) | IC50 (human p38 kinase alpha [1]) [nM] | IC50 (human p38 kinase alpha [2]) [nM] | IC50 [3] [nM] | melting point [°C]
Cc1n[nH]c(/C=C/c2ccccc2)c1-c1ccncc1 [Example 1, 4-[3-Methyl-5-(2-phenylethenyl)-1H-pyrazol-4-yl]pyridine] | 8700 | 660 | 600 | 
c1ccc(CCc2n[nH]cc2-c2ccncc2)cc1 [Example 3, 4-[5-(2-phenylethyl)-1H-pyrazol-4-yl]pyridine] |  |  |  | 125 to 131
Cc1n[nH]c(CCc2ccccc2)c1-c1ccncc1 [Example 2, 4-[3-Methyl-5-(2-phenylethyl)-1H-pyrazol-4-yl]pyridine] | 1000 | 2800 | 2300 | 
